Key:
[1] = Lipophilicity, log D of the compound at pH 7.4; assay type: physicochemical; conditions: buffer
Hepatitis C virus [2] = assay: Antiviral activity against Hepatitis C virus genotype 1a infected in human Huh cells assessed as inhibition of viral replication by RT-PCR-based replicon assay; assay type: functional, cell-based, Hepacivirus hominis; conditions: subtype 1a
Hepatitis C virus [3] = assay: Antiviral activity against Hepatitis C virus genotype 1b infected in human Huh cells assessed as inhibition of viral replication by RT-PCR-based replicon assay; assay type: functional, cell-based, Hepacivirus hominis

SMILES | logD [1] | EC50 (Hepatitis C virus [2]) [nM] | EC50 (Hepatitis C virus [3]) [nM]
CCOc1nc(NC(=O)C2(NC(=O)c3ccc4c(C5CCCC5)c(-c5ncc(Br)cn5)n(C)c4c3)CCC2)ccc1/C=C/C(=O)O |  | 24 | 12
CCOc1nc(NC(=O)C(C)(C)NC(=O)c2ccc3c(C4CCCC4)c(-c4ccccn4)n(C)c3c2)ccc1/C=C/C(=O)O | 3.5 |  | 2
CCOc1nc(NC(=O)C(C)(C)NC(=O)c2ccc3c(C4CCCC4)c(-c4ccc(Cl)cn4)n(C)c3c2)ccc1/C=C/C(=O)O | 4.4 | 9 | 5
CCOc1nc(NC(=O)C(C)(C)NC(=O)c2ccc3c(C4CCCC4)c(-c4cnccn4)n(C)c3c2)ccc1/C=C/C(=O)O | 2.9 |  | 7
CCOc1nc(NC(=O)C(C)(C)NC(=O)c2ccc3c(C4CCCC4)c(-c4ncc(Br)cn4)n(C)c3c2)ccc1/C=C/C(=O)O | > 4.7 | 8 | 5
CCOc1nc(NC(=O)C(C)(C)NC(=O)c2ccc3c(c2)c(C)c(-c2ccc(F)cn2)n3C2CCCCC2)ccc1/C=C/C(=O)O | 3.9 | 14 | 3
CCOc1nc(NC(=O)C(C)(C)NC(=O)c2ccc3c(C4CCCC4)c(-c4ccccn4)n(C)c3c2)cnc1/C=C/C(=O)O | 2.2 |  | 44
CCOc1nc(NC(=O)C(C)(C)NC(=O)c2ccc3c(C4CCCC4)c(-c4ccc(F)cn4)n(C)c3c2)cnc1/C=C/C(=O)O |  |  | 18
CCOc1nc(NC(=O)C(C)(C)NC(=O)c2ccc3c(C4CCCC4)c(-c4cnccn4)n(C)c3c2)cnc1/C=C/C(=O)O | 2.4 |  | 36
CCOc1nc(NC(=O)C(C)(C)NC(=O)c2ccc3c(C4CCCC4)c(-c4ncc(Br)cn4)n(C)c3c2)cnc1/C=C/C(=O)O | 3.4 | 67 | 14
CCOc1nc(NC(=O)C2(NC(=O)c3ccc4c(C5CCCC5)c(-c5ncc(Cl)cn5)n(C)c4c3)CCCC2)ccc1/C=C/C(=O)O | > 6.2 | 14 | 3
CCOc1nc(NC(=O)C2(NC(=O)c3ccc4c(C5CCCC5)c(-c5ccccn5)n(C)c4c3)CCCC2)ccc1/C=C/C(=O)O |  |  | 4
CCOc1nc(NC(=O)C2(NC(=O)c3ccc4c(C5CCCC5)c(-c5ccc(F)cn5)n(C)c4c3)CCCC2)ccc1/C=C/C(=O)O | > 5.3 |  | 4
CCOc1nc(NC(=O)C2(NC(=O)c3ccc4c(C5CCCC5)c(-c5ccc(Cl)cn5)n(C)c4c3)CCCC2)ccc1/C=C/C(=O)O | > 5.5 |  | 4
CCOc1nc(NC(=O)C2(NC(=O)c3ccc4c(C5CCCC5)c(-c5cnccn5)n(C)c4c3)CCCC2)ccc1/C=C/C(=O)O | 4.1 |  | 5
CCOc1nc(NC(=O)C2(NC(=O)c3ccc4c(C5CCCC5)c(-c5ncc(Br)cn5)n(C)c4c3)CCCC2)ccc1/C=C/C(=O)O | > 6.6 |  | 5
CCOc1nc(NC(=O)C2(NC(=O)c3ccc4c(c3)c(C)c(-c3ccc(F)cn3)n4C3CCCCC3)CCCC2)ccc1/C=C/C(=O)O | > 6.2 |  | 5
CCOc1nc(NC(=O)C2(NC(=O)c3ccc4c(c3)c(C)c(-c3ccc(F)cn3)n4C3CCCCC3)CCCC2)cnc1/C=C/C(=O)O | 4.2 |  | 6
COc1nc(NC(=O)C2(NC(=O)c3ccc4c(C5CCCC5)c(-c5ccc(Cl)cn5)n(C)c4c3)CCC2)ccc1/C=C/C(=O)O | 4.6 |  | 13

SMILES | logD [1] | EC50 (Hepatitis C virus [2]) [nM] | EC50 (Hepatitis C virus [3]) [nM]
COc1nc(NC(=O)C2(NC(=O)c3ccc4c(C5CCCC5)c(-c5ncc(Br)cn5)n(C)c4c3)CCC2)ccc1/C=C/C(=O)O | 3.9 |  | 9
COc1nc(NC(=O)C2(NC(=O)c3ccc4c(C5CCCC5)c(-c5ncc(Cl)cn5)n(C)c4c3)CCC2)cnc1/C=C/C(=O)O |  |  | 32
COc1nc(NC(=O)C2(NC(=O)c3ccc4c(C5CCCC5)c(-c5ccccn5)n(C)c4c3)CCC2)cnc1/C=C/C(=O)O |  |  | 43
COc1nc(NC(=O)C2(NC(=O)c3ccc4c(C5CCCC5)c(-c5ccc(F)cn5)n(C)c4c3)CCC2)cnc1/C=C/C(=O)O |  |  | 37
COc1nc(NC(=O)C2(NC(=O)c3ccc4c(C5CCCC5)c(-c5ccc(Cl)cn5)n(C)c4c3)CCC2)cnc1/C=C/C(=O)O |  |  | 56
COc1nc(NC(=O)C2(NC(=O)c3ccc4c(C5CCCC5)c(-c5ncc(Br)cn5)n(C)c4c3)CCC2)cnc1/C=C/C(=O)O |  |  | 116
COc1nc(NC(=O)C(C)(C)NC(=O)c2ccc3c(C4CCCC4)c(-c4ncc(Cl)cn4)n(C)c3c2)ccc1/C=C/C(=O)O | 3.3 |  | 47
COc1nc(NC(=O)C(C)(C)NC(=O)c2ccc3c(C4CCCC4)c(-c4ccccn4)n(C)c3c2)ccc1/C=C/C(=O)O |  |  | 21
COc1nc(NC(=O)C(C)(C)NC(=O)c2ccc3c(C4CCCC4)c(-c4ccc(Cl)cn4)n(C)c3c2)ccc1/C=C/C(=O)O | 3.9 |  | 12
COc1nc(NC(=O)C(C)(C)NC(=O)c2ccc3c(C4CCCC4)c(-c4cnccn4)n(C)c3c2)ccc1/C=C/C(=O)O | 2.4 |  | 16
COc1nc(NC(=O)C(C)(C)NC(=O)c2ccc3c(C4CCCC4)c(-c4ncc(Br)cn4)n(C)c3c2)ccc1/C=C/C(=O)O | 3.2 |  | 7
COc1nc(NC(=O)C(C)(C)NC(=O)c2ccc3c(c2)c(C)c(-c2ccc(F)cn2)n3C2CCCCC2)ccc1/C=C/C(=O)O |  |  | 3
COc1nc(NC(=O)C(C)(C)NC(=O)c2ccc3c(C4CCCC4)c(-c4ccccn4)n(C)c3c2)cnc1/C=C/C(=O)O |  |  | 50
COc1nc(NC(=O)C(C)(C)NC(=O)c2ccc3c(C4CCCC4)c(-c4ccc(F)cn4)n(C)c3c2)cnc1/C=C/C(=O)O |  |  | 26
COc1nc(NC(=O)C(C)(C)NC(=O)c2ccc3c(C4CCCC4)c(-c4ccc(Cl)cn4)n(C)c3c2)cnc1/C=C/C(=O)O |  |  | 44
COc1nc(NC(=O)C(C)(C)NC(=O)c2ccc3c(C4CCCC4)c(-c4cnccn4)n(C)c3c2)cnc1/C=C/C(=O)O |  |  | 55
COc1nc(NC(=O)C(C)(C)NC(=O)c2ccc3c(C4CCCC4)c(-c4cncnc4)n(C)c3c2)cnc1/C=C/C(=O)O |  |  | 330
COc1nc(NC(=O)C(C)(C)NC(=O)c2ccc3c(C4CCCC4)c(-c4ncc(Br)cn4)n(C)c3c2)cnc1/C=C/C(=O)O | 2.6 |  | 23
COc1nc(NC(=O)C(C)(C)NC(=O)c2ccc3c(c2)c(C)c(-c2ccc(F)cn2)n3C2CCCCC2)cnc1/C=C/C(=O)O |  |  | 27

Next, values leading:

logD [1] | EC50 (Hepatitis C virus [2]) [nM] | EC50 (Hepatitis C virus [3]) [nM] | SMILES
3.5 |  |  | CCOc1nc(NC(=O)C2(NC(=O)c3ccc4c(C5CCCC5)c(-c5ncc(Cl)cn5)n(C)c4c3)CCC2)cnc1/C=C/C(=O)O
 | 89 | 20 | CCOc1nc(NC(=O)C2(NC(=O)c3ccc4c(C5CCCC5)c(-c5ccc(F)cn5)n(C)c4c3)CCC2)cnc1/C=C/C(=O)O
 |  | 53 | CCOc1nc(NC(=O)C2(NC(=O)c3ccc4c(C5CCCC5)c(-c5ccc(Cl)cn5)n(C)c4c3)CCC2)cnc1/C=C/C(=O)O
2.9 |  | 22 | CCOc1nc(NC(=O)C2(NC(=O)c3ccc4c(C5CCCC5)c(-c5cnccn5)n(C)c4c3)CCC2)cnc1/C=C/C(=O)O
 |  | 89 | CCOc1nc(NC(=O)C2(NC(=O)c3ccc4c(C5CCCC5)c(-c5cncnc5)n(C)c4c3)CCC2)cnc1/C=C/C(=O)O
4.2 |  | 30 | CCOc1nc(NC(=O)C2(NC(=O)c3ccc4c(C5CCCC5)c(-c5ncc(Br)cn5)n(C)c4c3)CCC2)cnc1/C=C/C(=O)O
2.2 |  | 82 | CCOc1nc(NC(=O)C(C)(C)NC(=O)c2ccc3c(C4CCCC4)c(-c4cncnc4)n(C)c3c2)cnc1/C=C/C(=O)O
3.6 |  | 5 | CCOc1nc(NC(=O)C2(NC(=O)c3ccc4c(C5CCCC5)c(-c5cncnc5)n(C)c4c3)CCCC2)ccc1/C=C/C(=O)O
4.3 | 27 | 6 | CCOc1nc(NC(=O)C2(NC(=O)c3ccc4c(C5CCCC5)c(-c5ncc(Cl)cn5)n(C)c4c3)CCCC2)cnc1/C=C/C(=O)O
2.6 |  | 16 | CCOc1nc(NC(=O)C2(NC(=O)c3ccc4c(C5CCCC5)c(-c5ccccn5)n(C)c4c3)CCCC2)cnc1/C=C/C(=O)O
3.9 |  | 11 | CCOc1nc(NC(=O)C2(NC(=O)c3ccc4c(C5CCCC5)c(-c5ccc(F)cn5)n(C)c4c3)CCCC2)cnc1/C=C/C(=O)O
> 4.4 |  | 13 | CCOc1nc(NC(=O)C2(NC(=O)c3ccc4c(C5CCCC5)c(-c5ccc(Cl)cn5)n(C)c4c3)CCCC2)cnc1/C=C/C(=O)O
2.8 |  | 18 | CCOc1nc(NC(=O)C2(NC(=O)c3ccc4c(C5CCCC5)c(-c5cncnc5)n(C)c4c3)CCCC2)cnc1/C=C/C(=O)O
> 4.2 |  | 9 | CCOc1nc(NC(=O)C2(NC(=O)c3ccc4c(C5CCCC5)c(-c5ncc(Br)cn5)n(C)c4c3)CCCC2)cnc1/C=C/C(=O)O
 |  | 50 | COc1nc(NC(=O)C2(NC(=O)c3ccc4c(C5CCCC5)c(-c5cncnc5)n(C)c4c3)CCC2)ccc1/C=C/C(=O)O
 |  | 49 | COc1nc(NC(=O)C2(NC(=O)c3ccc4c(C5CCCC5)c(-c5cnccn5)n(C)c4c3)CCC2)cnc1/C=C/C(=O)O
 |  | 185 | COc1nc(NC(=O)C2(NC(=O)c3ccc4c(C5CCCC5)c(-c5cncnc5)n(C)c4c3)CCC2)cnc1/C=C/C(=O)O
 |  | 29 | COc1nc(NC(=O)C2(NC(=O)c3ccc4c(C5CCCC5)c(-c5ncc(Cl)cn5)n(C)c4c3)CCCC2)cnc1/C=C/C(=O)O
 |  | 31 | COc1nc(NC(=O)C2(NC(=O)c3ccc4c(C5CCCC5)c(-c5ccccn5)n(C)c4c3)CCCC2)cnc1/C=C/C(=O)O
 |  | 30 | COc1nc(NC(=O)C2(NC(=O)c3ccc4c(C5CCCC5)c(-c5ccc(F)cn5)n(C)c4c3)CCCC2)cnc1/C=C/C(=O)O
 |  | 40 | COc1nc(NC(=O)C2(NC(=O)c3ccc4c(C5CCCC5)c(-c5ccc(Cl)cn5)n(C)c4c3)CCCC2)cnc1/C=C/C(=O)O
 |  | 390 | COc1nc(NC(=O)C2(NC(=O)c3ccc4c(C5CCCC5)c(-c5cnccn5)n(C)c4c3)CCCC2)cnc1/C=C/C(=O)O
 |  | 575 | COc1nc(NC(=O)C2(NC(=O)c3ccc4c(C5CCCC5)c(-c5cncnc5)n(C)c4c3)CCCC2)cnc1/C=C/C(=O)O
 |  | 38 | COc1nc(NC(=O)C2(NC(=O)c3ccc4c(C5CCCC5)c(-c5ncc(Br)cn5)n(C)c4c3)CCCC2)cnc1/C=C/C(=O)O

— ChEMBL document CHEMBL3407472, “Multi-parameter optimization of aza-follow-ups to BI 207524, a thumb pocket 1 HCV NS5B polymerase inhibitor. Part 2: Impact of lipophilicity on promiscuity and in vivo toxicity” (Bioorg Med Chem Lett, 2015)
